Columns and labels:
PH domain of GRP = target: T1, PH domain of GRP (Mus musculus, UniProt O08967); test: Binding specificity of the GRP PH domain for 32P-labeled phosphoinositides (GST-PH on nitrocellulose); set-up: species or system murine; settings: GST-PH, 25,000 cpm lipid; relative to GST
T1 sequence (O08967 239-399): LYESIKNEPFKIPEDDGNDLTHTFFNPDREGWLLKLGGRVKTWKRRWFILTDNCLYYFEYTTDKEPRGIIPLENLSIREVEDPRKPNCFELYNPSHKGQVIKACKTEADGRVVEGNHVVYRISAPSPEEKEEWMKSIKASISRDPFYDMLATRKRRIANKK
Method: The 3'-phosphatidylinositol probes labeled at the 3' position were generated using GST-p110 PI3-kinase purified from recombinant bacculovirus infected Sf 9 cells, using either purified phosphatidylinositol phosphates or crude brain lipid. Briefly, 20 mg phospholipid in chloroform was dried under N2 and resuspended in […] of buffer containing Tris-HCl pH 7.4, EDTA 1 mM and incubated in […] phopsphorylation media containing 20 mM Tris-HCl pH 7.4, 100 mM NaCl, 10 mM MgCl2, 0.5 mM EGTA. 0.2 mM adenosine, GST-p110 and 5-10 mCi [g-^32 P]ATP (5 Ci/umol). The reaction was carried out for 2 h at room temperature, quenched by addition of 0.2 ml of 1M HCl, followed by 0.5 ml of chloroform:methanol (1:1). The organic phase containing phospholipids was washed 4 times with 0.4 ml of methanol:HCl (1: 1) and stored at -70° C. until use. Just before use, the lipid was dried under a stream of nitrogen with phosphatidyl serine corresponding to a final concentration of 20 mg/ml. The identities of the PI3-P, PI3,4-P2 and PI3,4,5-P3 were confirmed by TLC and HPLC analysis.
To generate the GST fusion proteins, PCR reactions using the primers: […] (SEQ ID NO:9) and […] (SEQ ID NO:10) for the GST-N construct, […] (SEQ ID NO:11) and […] (SEQ ID NO:12) for the GST-Sec7 construct, […] (SEQ ID NO:13) and […] (SEQ ID NO:14) for the GSTPH construct, and […] […] The filters were washed four times with 1 mL assay buffer and counted in a scintillation counter.
In order to determine whether PI(3,4,5)P3 binding could be localized to specific sequences within the GRP structure, GST fusion proteins containing either residues 239 to 399 (PH domain), residues 52 to 260 (Sec7 domain), or residues 5 to 71, full length GRP residues 5-399 were expressed in bacteria and purified on glutathione-conjugated beads. […] 150 pmol of the proteins were spotted on nitrocellulose filters, incubated with [^32 P]PI(3,4,5)P3 and the amount of bound lipid was determined as described. […] Nitrocellulose filters with GST-PH were incubated with 25,000 cpm of each of the phospholipids and the amount of bound lipid determined as described above. […]

[1] = target: T2, proteins encoded by both brain and adipocyte cDNA clones (GRP) (Mus musculus, UniProt O08967); test: Binding of 32P-labeled phosphoinositides to protein of isolated cDNA clones on nitrocellulose filters (library screen); settings: library screening conditions
T2 construct: lack four residues
T2 sequence (O08967 5-399): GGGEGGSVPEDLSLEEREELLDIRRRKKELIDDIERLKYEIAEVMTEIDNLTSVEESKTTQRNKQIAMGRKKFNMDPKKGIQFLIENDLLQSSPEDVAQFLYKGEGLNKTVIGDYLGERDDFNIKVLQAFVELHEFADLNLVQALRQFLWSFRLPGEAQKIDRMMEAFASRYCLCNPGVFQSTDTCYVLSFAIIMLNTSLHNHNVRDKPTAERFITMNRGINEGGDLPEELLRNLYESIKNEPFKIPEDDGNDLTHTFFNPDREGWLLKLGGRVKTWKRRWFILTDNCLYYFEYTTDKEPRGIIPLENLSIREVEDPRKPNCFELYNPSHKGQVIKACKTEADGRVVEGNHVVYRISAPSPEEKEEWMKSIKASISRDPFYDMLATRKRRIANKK

binding of labeled phosphoinositide to the GRP PH domain (PH domain of GRP): specifically | binding of labeled phosphoinositide to the cDNA clone protein [1]: bound
Substance: Phosphatidylinositol (3,4,5)-Trisphosphate [PtdIns(3,4,5)P3]

Source: patent publication US6194173A, “Binding proteins for phosphoinositides, GRP1 or general receptor 1 for phophoinositide” (priority 1999, dated 2001)
